Measured values as given in US8729088B2, “Toll-like receptor modulators and treatment of diseases” (The Regents of the University of California, priority 2009, dated 2014).
“Also recorded” adds a separate entry of the source.

What was measured:
Solubility observations = assay type: physicochemical
TLR7 [1] = assay: Cytokine induction in BMDM from wild type and TLR7 deficient mice; assay type: cell-based, mouse; conditions: BMDM from TLR7 deficient mice
Description: (§1) In vitro measurements of cytokine induction were performed using the mouse leukemic monocyte macrophage cell line, RAW264.7. […] BMDM were prepared from C57BL/6 and TLR7 deficient mice as described in Wu, C. C et al., (2007) “Immunotherapeutic activity of a conjugate of a Toll-like receptor 7 ligand”, Proc Natl Acad Sci USA 104, 3990-5.
(§2) In general, RAW264.7 cells or BMDM were incubated with various concentrations of conjugates for 18 hours at 37° C., 5% CO2 and culture supernatants were collected. The levels of cytokines (IL-6, IL-12 or TNF-α in the supernatants were determined by ELISA (BD Biosciences Pharmingen, La Jolla, Calif.) (Cho, H. J et al., “Immunostimulatory DNA-based vaccines induce cytotoxic lymphocyte activity by a T-helper cell-independent mechanism” [see comments], Nat Biotechnol 18, 509-14 (2000)), and the results presented in FIG. 2A-D. Data are mean±SEM of triplicates and are representative of three independent experiments. Minimum detection levels of these cytokines were 15 pg/mL.

TLR7 [2] = biological target: T1, TLR7 (Mus musculus, UniProt P58681); assay: In vitro cytokine induction in murine macrophages (RAW264.7, BMDM), ELISA; assay type: cell-based; parameters: endogenous in cells; host or cells: RAW264.7 (ATCC); primary BMDM from C57BL/6 mice; conditions: for potency compared to the unconjugated TLR7 (SM): ELISA; for potency of cytokine induction in comparison to the unmodified TLR7 agonist: in vitro and in vivo
T1 sequence (P58681 27-1050): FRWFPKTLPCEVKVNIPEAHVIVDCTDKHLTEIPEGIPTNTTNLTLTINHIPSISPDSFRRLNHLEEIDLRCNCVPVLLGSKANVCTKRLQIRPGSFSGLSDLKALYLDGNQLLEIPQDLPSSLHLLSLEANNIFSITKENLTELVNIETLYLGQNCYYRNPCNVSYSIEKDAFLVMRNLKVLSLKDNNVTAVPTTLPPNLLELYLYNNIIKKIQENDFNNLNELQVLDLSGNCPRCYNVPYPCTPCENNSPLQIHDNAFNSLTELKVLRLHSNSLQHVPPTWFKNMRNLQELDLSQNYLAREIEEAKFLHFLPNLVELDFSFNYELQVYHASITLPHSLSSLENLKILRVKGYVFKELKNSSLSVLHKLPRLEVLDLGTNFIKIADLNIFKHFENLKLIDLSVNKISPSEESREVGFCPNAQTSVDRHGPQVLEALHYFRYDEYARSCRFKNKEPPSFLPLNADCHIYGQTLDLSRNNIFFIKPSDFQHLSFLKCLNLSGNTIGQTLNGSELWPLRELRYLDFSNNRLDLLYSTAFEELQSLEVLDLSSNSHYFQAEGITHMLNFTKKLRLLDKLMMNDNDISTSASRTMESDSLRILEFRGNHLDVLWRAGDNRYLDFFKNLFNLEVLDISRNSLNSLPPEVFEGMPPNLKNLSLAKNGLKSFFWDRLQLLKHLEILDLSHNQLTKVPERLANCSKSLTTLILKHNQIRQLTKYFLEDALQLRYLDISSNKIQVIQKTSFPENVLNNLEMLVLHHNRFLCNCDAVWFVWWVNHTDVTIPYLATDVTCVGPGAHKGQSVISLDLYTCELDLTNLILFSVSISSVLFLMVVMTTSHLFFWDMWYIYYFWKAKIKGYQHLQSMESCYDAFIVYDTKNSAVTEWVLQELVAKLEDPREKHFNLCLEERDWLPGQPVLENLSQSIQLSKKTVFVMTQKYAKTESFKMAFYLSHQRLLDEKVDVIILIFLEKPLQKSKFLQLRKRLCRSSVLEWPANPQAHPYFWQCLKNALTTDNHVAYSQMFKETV
Description: as §1, §2
TNFα levels were measured (see FIG. 2A) by incubating approximately 1×10^6/mL RAW 264.7 cells with the various conjugates or controls, as described above. IL-6 and IL12 levels were measured (see FIG. 2B-D) by incubating 0.5×10^6/mL BMDM with the various conjugates or controls, as described above.
Using a similar assay, the in vitro potency of the lipid-TLR agonist conjugates (FIG. 1, compound 6), PEG-TLR7 agonist conjugates (FIG. 1, compound 8), and PEG-lipid (FIG. 1, compound 9) conjugates were compared using a murine macrophage cell line, RAW264, and primary bone marrow derived macrophages (BMDM). The respective cells were stimulated for 18 hours with serially diluted TLR7 conjugates and the levels of cytokines released in the media were measured by ELISA and compared to the unconjugated TLR7 agonist (SM) (see FIG. 2A, panels A-D).

[3] = tested on: C57BL/6 mice immunized with ovalbumin (OVA); assay: Adjuvanticity: subcutaneous immunization with OVA mixed with TLR7 conjugates; assay type: in vivo, mouse
Description: Each ELISA plate contained a titration of a previously quantitated serum to generate a standard curve. […] The various sera samples were tested at a 1:100 dilution.
Spleenocytes were prepared from the harvested spleens.
The efficiency of adjuvanticity was assessed by measurement of the levels and isotypes of the antigen-specific IgG that the vaccine induces, in particular IgG1 and IgG2 (Mosmann, T. R., and Coffman, R. L., ‘TH1 and TH2 cells: different patterns of lymphokine secretion lead to different functional properties’, Annual Review Immunology 7:145-73 (1989)). The groups of C57BL/6 mice (n=5 animals per group) were subcutaneously immunized with OVA (ovalbumin) mixed with TLR7 conjugates. […] Mice immunized with saline or OVA plus vehicle (0.1% DMSO) were used as negative controls.

C57BL/6 mice [4] = assay: Serum transferred arthritis (K/BxN serum); assay type: in vivo, mouse
Description: The anti-inflammatory efficacy of TLR7 agonist-PEG conjugates was tested in mouse models of human inflammatory diseases (serum transfer arthritis, experimental allergic encephalomyelitis (EAE) (see above), and thioglycollate induced peritonitis).

[5] = tested on: pro-inflammatory cytokines (IL-6, TNF-α) in sera; assay: In vivo kinetics of pro-inflammatory cytokine induction after intravenous injection; parameters: species or system mouse
Description: The pharmacokinetics of pro inflammatory cytokine induction by TLR7 conjugates was examined using 6- to 8-week old C57BL/6 mice. […] Blood samples were collected 2, 4, 6, 24 or 48 hours after injections. Sera were separated and kept at −20° C. until use.

C57BL/6 mice [6] = assay: MOG induced experimental autoimmune encephalomyelitis (EAE)
Description: The effect of compound (8) on experimental autoimmune encephalomyelitis (EAE) was determined using C57BL/6 mice treated with myelin oligodendrocyte glycoprotein (MOG).
Treatment with MOG (or MOG peptides) may be used to induce EAE. Mice were treated with MOG protein for 6 days. On day 6 and onward (see FIG. 8), 50 nmoles of compound (8) or PBS were intravenously (i.v.) injected everyday. EAE clinical scores were used as a clinical metric for demyelination and were determined visually.
MOG protein was also used to evaluate potential adverse effect of various TLR7 conjugates, as described above. Evaluation of the results were by observation of various symptoms associated with MOG induced EAE (e.g., brain inflammation, demyelination of neurons and the like).

Row | SMILES | dissolution in suitable solvents for testing (Solubility observations) | IL-12 and IL-6 induction (TLR7 [1]) | potency as a cytokine inducer compared to the unconjugated agonist (TLR7 [2]; normalized to the molar level of the unconjugated agonist, RAW264, BMDM, 18 hours) | onset of induction of anti-OVA antibodies ([3]; OVA mixed with conjugate, s.c., days 0 and 7) | OVA-specific IFNγ secretion by spleen cells ([3]; day 56 splenocytes restimulated with OVA) | anti-OVA IgG2a levels ([3]; serum, ELISA, days 0-56) | paw swelling (C57BL/6 mice [4]; daily gavage) | paw swelling (C57BL/6 mice [4]; daily subcutaneous injection) | solubility in aqueous solution (Solubility observations) | IL-6 induction in serum ([5]; 200 nmol per animal i.v.) | TNFα induction in serum ([5]; 200 nmol per animal i.v., any point post injection) | IL-6 or TNFα stimulating activity ([5]; FIGS. 4A-B) | antagonistic activity ([5]; concluded from FIGS. 4A-B, 7A-B and 8) | potency compared to the unconjugated TLR7 (SM) (TLR7 [2]; RAW264, BMDM, 18 hours) | potency of cytokine induction in comparison to the unmodified TLR7 agonist (TLR7 [2]) | EAE clinical score / severity of symptoms (C57BL/6 mice [6]; 50 nmoles i.v. every day from day 6, days 11-17) | adverse reaction (C57BL/6 mice [6]; mouse, in vivo) | Th1 response (IgG2a levels) ([3]; mouse, in vivo) | Th2 immune response (IgG1 levels) ([3]; mouse, in vivo)
1 | CCCCCCCC/C=C\CCCCCCCC(=O)OCC(COP(=O)(O)OCCNC(=O)c1ccc(Cn2c(=O)[nH]c3c(N)nc(OCCOC)nc32)cc1)OC(=O)CCCCCCC/C=C\CCCCCCCC (centres unmarked) [Compound 6, 2-(4-((6-amino-2-(2-methoxyethoxy)-8-oxo-7H-purin-9(8H)-yl)methyl)benzamido)ethyl 2,3-bis(oleoyloxy)propyl phosphate] | difficulty in dissolution | little or no IL-12 and IL-6 | 10 fold | 14 days | enhanced | continuously increased; also recorded: rapid elevation; also recorded: sustained and further accelerated levels | – | – | – | – | – | – | – | – | – | – | – | – | –
2 | COCCOc1nc(N)c2nc(O)n(Cc3ccc(C(=O)NCCOCCOCCOCCOCCOCCOCCOCCOCCOCCOCCn4cc(CCC(=O)O)nn4)cc3)c2n1 [Compound 8, 3-(1-(1-(4-((6-amino-8-hydroxy-2-(2-methoxyethoxy)-9H-purin-9-yl)methyl)phenyl)-1-oxo-5,8,11,14,17,20,23,26,29,32-decaoxa-2-azatetratriacontan-34-yl)-1H-1,2,3-triazol-4-yl)propanoic acid] | – | little or no IL-12 and IL-6 | – | – | – | – | reduced paw swelling | reduced paw swelling | improves dramatically | only a low level | no significant induction | little or no IL-6 or TNFα stimulating activity | antagonistic activity under certain conditions | less potency | attenuated | significantly reduces the severity of EAE symptoms | no additional adverse reaction | – | –
3 | CCCCCCCC/C=C\CCCCCCCC(=O)OCC(COP(=O)(O)OCCNC(=O)CCc1cn(CCOCCOCCOCCOCCOCCOCCOCCOCCOCCOCCNC(=O)c2ccc(Cn3c(O)nc4c(N)nc(OCCOC)nc43)cc2)nn1)OC(=O)CCCCCCC/C=C\CCCCCCCC (centres unmarked) [Compound 9, 2-(3-(1-(1-(4-((6-amino-8-hydroxy-2-(2-methoxyethoxy)-9H-purin-9-yl)methyl)phenyl)-1-oxo-5,8,11,14,17,20,23,26,29,32-decaoxa-2-azatetratriacontan-34-yl)-1H-1,2,3-triazole-4-yl)propanamido)ethyl 2,3-bis(oleoyloxy)propyl phosphate] | – | little or no IL-12 and IL-6 | – | – | – | – | – | – | – | – | – | – | – | restored their potency to the similar level of the unconjugated TLR7 (SM) | restored | – | – | minimal Th1 response | induce a Th2 immune response
